Laboratory results as given in patent US20050014692A1, “Lactate dehydrogenase as a novel target and reagent for diabetes therapy” (priority 2003, published 2005).
“Also recorded” adds a separate entry of the source.

Experiments:
832/13 cells = experiment: Insulin secretion assay in 832/13 cells (radioimmunoassay); type: cell-based, rat
Method: FIG. 3. Stimulation of insulin secretion by lactate, pyruvate, and glucose in 832/13 cells. Confluent, insulin secreting 832/13 cells were stimulated for 2 hours with various concentrations of secretagogues as indicated in the figure, and IS was determined by radioimmunoassay of the cell supernatant.
FIG. 4. The effect of rat LDHA overexpression on glucose, pyruvate, and lactate-stimulated insulin secretion in 832/13 cells. 832/13 cells were treated with adenovirus expressing rat LDHA (AdLDH) and beta-galactosidase (Adbetagal), respectively. The LDH activity in cell extracts was monitored by the decrease in absorbance at 340 nm (insert) and the insulin response to glucose, pyruvate, and lactate was examined by radioimmunoassay.
FIG. 7B. The effect of the LDH inhibitor oxamate on insulin secretion in 832/13 cells. Cells were incubated with ^13C labeled glucose for 4 hours in the presence or absence of oxamate.
FIG. 14. The effect of mitLDHA and LDHA on fuel-mediated IS in the 832/13 cells. The inset depicts the activity of LDH for each experiment.
The cell line 832/13 was created from INS-1 insulinoma β-cells as described earlier (Hohmeier et al. (2000) Diabetes 49:424430). Cells were cultured in RPMI-1640 medium containing 11 mM glucose supplemented with 10% fetal bovine serum, 10 mM HEPES, 2 mM glutamine, 1 mM sodium pyruvate and […] β-mercaptoethanol. Media was routinely changed every second day. […]
Insulin secretion was assayed in HEPES buffered saline solution (HBSS) (114 mM NaCl, 4.7 mM KCl, 1.2 mM KH2PO4, 1.16 mM MgSO4, 20 mM HEPES, 2.5 mM CaCl2, 25.5 mM NaHCO3, pH 7.2 containing 0.2% bovine serum albumin (essentially fatty acid free). Cells were washed in 1 ml of HBSS, preincubated in 1.5 ml of HBSS for 2 hour prior to a 2 hour incubation in the presence of secretagogues as indicated in the figures. The insulin levels were determined by radioimmunoassay with the Coat-A-Count kit (ICN Pharmaceuticals, Costa Mesa, Calif.) and lactate output was determined with a Lactate Reagent kit (Sigma, St. Louis, Mo.) according to protocols outlined by the manufacturer.

[1] = test system: cell lines derived from rat INS-1 cells; details: glucose-responsive clones; in direct correlation with changes in pyruvate cycling; cited from earlier work
[2] = test system: glycerol kinase overexpressing 832/13 cells; experiment: 13C studies in glycerol kinase overexpressing 832/13 cells (insulin secretion, lactate output, pyruvate cycling); type: cell-based, rat
Excerpt: FIG. 9 depicts the effect of glycerol kinase overexpression in 832/13 cells on insulin excretion, lactate output and pyruvate cycling.
In contrast, pyruvate cycling and lactate output are higher in response to glycerol than to glucose.

For `CC(O)C(=O)O` (centres unmarked) [lactate], the “stimulation of insulin secretion as secretagogue” value (“stimulation … as secretagogue” for short) (832/13 cells; 832/13 cells overexpressing LDHA (AdLDH treated)) was “as effective as the other two fuels; also recorded: as effective as glucose or pyruvate”, the “stimulation … as secretagogue” value (832/13 cells; 832/13 cells without LDHA overexpression, 2 hours, relative to glucose or pyruvate) was “poor secretagogue; also recorded: only a weak stimulator” and the “stimulation … as secretagogue” value (832/13 cells; 832/13 cells without LDHA overexpression, 2 hours, relative to glucose or pyruvate, listed as Lactate) was “poor secretagogue”.
For malate in the form of methyl ester, the “effect on glucose-stimulated IS” value [1] is given as “potentiated”.
For `O=C(O)Cc1ccccc1` [phenylacetic acid], the “effect on glucose-stimulated IS” value [1] is listed as “impaired”.
For `OCC(O)CO` [glycerol], the “lactate output, compared with glucose” value [2] was “higher”, the “pyruvate cycling, compared with glucose” value [2] was “higher” and the “stimulation of insulin secretion, compared with glucose” value [2] was “to the same extent”.
